Test results taken from publication PMC4978154, “Phase I metabolites of mephedrone display biological activity as substrates at monoamine transporters” (British Journal of Pharmacology, 2016).
Like-named read-outs stand apart in the source and are kept apart here.

What was measured:
[1] = test system: extracellular dopamine in rat nucleus accumbens; assay: Microdialysis in rat nucleus accumbens, dialysate dopamine; type: in vivo; settings: versus saline
Description: In vivo microdialysis procedures were carried out as previously described with minor modifications (Baumann et al., 2012). Briefly, male rats anaesthetized with sodium pentobarbital (60 mg·kg^−1, i.p.) received surgically implanted jugular catheters, and intracerebral guide cannulae aimed at the nucleus accumbens (AP +1.6 mm, ML −1.7 mm relative to bregma; −6.2 mm relative to dura) (Paxinos and Watson, 2007). After a 7–10 day recovery, each rat was placed into a chamber equipped with photobeams for the detection of motor parameters (TruScan, Harvard Apparatus, Holliston, MA, USA) and allowed to acclimatize overnight. Food and water were available ad libitum during the acclimatization period. On the following morning, catheters were attached to PE 50 extension tubes, and 0.5 × 2 mm microdialysis probes (CMA/12, Harvard Apparatus, Holliston, MA, USA) were inserted into the guide cannulae. Ringers' solution (150 mM NaCl, 2.8 mM KCl and 2.0 mM CaCl2) was perfused through the probes at 0.6 μL·min^−1 for 3 h. To commence experiments, dialysate samples ([…]) were collected at 20 min intervals, and drug or saline treatments were given after three baseline samples were obtained. Rats received two sequential i.v. injections of mephedrone or its metabolites, with 1 mg·kg^−1 administered at time zero, followed by 3 mg·kg^−1 60 min later. Saline was administered using the same schedule in a separate group of rats. Dialysate concentrations of dopamine and 5‐HT were quantified using HPLC coupled to electrochemical detection (Baumann et al., 2012). Chromatographic data were exported to an Empower software system (Waters, Inc., Milford, MA, USA) for peak identification, integration and analysis.
Correct probe placements were assessed after the microdialysis experiments. Rats were killed by CO2 narcosis then decapitated. Brains were quickly removed and immersion fixed in 10% paraformaldehyde for 1 week. Subsequently, brains were sectioned on a cryostat, and the location of each probe tip was verified by inspection of photographic images of the brain taken with a digital camera using the macro lens setting.
(§1) Calculations were performed using Microsoft Excel® 2010 (Microsoft Corporation, Redmond, WA, USA) and GRAPHPAD PRISM 5.0. (GraphPad Software Inc., La Jolla, CA, USA). IC50 values for uptake inhibition and EC50 values for release were determined by nonlinear regression fits. Release data expressed as AUC were analysed by one‐way ANOVA followed by Bonferroni's multiple comparison test. Microdialysis and locomotor data were analysed by two‐way ANOVA (drug treatment × time) followed by Bonferroni's test. The effect of monensin treatment on basal efflux of tritiated substrate was analysed with the Mann–Whitney test. P values less than 0.05 (i.e. P < 0.05) were considered significant. The data and statistical analysis comply with the recommendations on experimental design and analysis in pharmacology (Curtis et al., 2015).

[2] = forensic traffic case, ref Pedersen et al., 2013, cited from earlier work; for blood concentration, first case: parent drug:metabolite 28:2; for blood concentration, second case: parent drug:metabolite 29:9
hNET = biological target: T1, hNET (Homo sapiens, UniProt P23975); assay: Transporter uptake inhibition in HEK293 cells expressing hNET; type: cell-based; settings: [3H]-MPP+ uptake; for IC50: mean (95% confidence interval)
T1 construct: expressed in transfected cells
T1 sequence (P23975 whole entry): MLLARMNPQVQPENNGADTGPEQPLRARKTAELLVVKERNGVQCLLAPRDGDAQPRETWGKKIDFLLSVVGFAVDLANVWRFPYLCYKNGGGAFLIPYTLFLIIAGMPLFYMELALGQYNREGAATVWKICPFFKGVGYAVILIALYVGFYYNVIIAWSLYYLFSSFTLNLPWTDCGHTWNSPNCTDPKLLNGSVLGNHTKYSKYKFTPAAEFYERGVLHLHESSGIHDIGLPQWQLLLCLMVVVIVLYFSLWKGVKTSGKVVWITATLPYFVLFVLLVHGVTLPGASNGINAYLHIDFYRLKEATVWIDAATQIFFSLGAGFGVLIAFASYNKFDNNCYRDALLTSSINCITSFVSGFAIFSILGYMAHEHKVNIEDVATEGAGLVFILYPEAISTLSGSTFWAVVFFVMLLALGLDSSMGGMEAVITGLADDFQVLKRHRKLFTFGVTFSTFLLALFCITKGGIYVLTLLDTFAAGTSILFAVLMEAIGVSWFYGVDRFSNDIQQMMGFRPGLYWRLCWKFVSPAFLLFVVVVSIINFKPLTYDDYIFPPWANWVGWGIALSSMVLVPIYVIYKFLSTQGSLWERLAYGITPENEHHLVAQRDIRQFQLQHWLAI
Description: (§2) The generation of HEK293 cells stably expressing the human isoforms of DAT (hDAT) and NET (hNET) was carried out as described previously (Scholze et al., 2002). For SERT, the human isoform (hSERT) was cloned in frame with yellow fluorescent protein (Schmid et al., 2001). The generation of a stable cell line was performed as described by Hilber and colleagues (Hilber et al., 2005). HEK293 cells were maintained in humidified atmosphere (5% CO2, 37°C) in DMEM, supplemented with 10% heat‐inactivated FBS and penicillin (100 u 100 mL^−1) and streptomycin (100 μg 100 mL^−1). Selection pressure was maintained by adding geneticin (50 μg·mL^−1) to the cell culture media.
(§3) Uptake experiments were conducted as described previously (Sitte et al., 2001) with minor modifications. In brief, HEK293 cells expressing hDAT, hNET or hSERT were seeded into poly‐D‐lysine (PDL) coated 96‐well plates at a density of 40 000 cells per well. The next day, DMEM was aspirated and replaced with Krebs HEPES buffer (KHB, 25 mM HEPES, 120 mM NaCl, 5 mM KCl, 1.2 mM CaCl2, and 1.2 mM MgSO4, 5 mM D‐glucose, pH adjusted to 7.3 with NaOH) (200 μL per well), and cells were pre‐incubated with various concentrations of mephedrone or its metabolites for 5 min (50 μL per well). Subsequently, 0.1 μM of [^3H]‐5‐HT or 0.02 μM of [^3H]‐MPP^+ were added, and uptake was terminated after 1 (hSERT) or 3 min (hDAT, hNET) by washing the cells with 200 μL of ice‐cold KHB. Cells were lysed with 1% SDS, and tritium uptake was determined by scintillation counting. Nonspecific uptake was determined in the presence of 10 μM paroxetine (hSERT) or 10 μM mazindol (hDAT and hNET).
as §1, with “GRAPHPAD” left out

hSERT = biological target: T2, hSERT (Homo sapiens, UniProt P31645); assay: Transporter uptake inhibition in HEK293 cells expressing hSERT; type: cell-based; settings: [3H]-5-HT uptake; for IC50: mean (95% confidence interval)
T2 construct: yellow fluorescent protein (YFP); expressed in transfected cells
T2 sequence (P31645 whole entry): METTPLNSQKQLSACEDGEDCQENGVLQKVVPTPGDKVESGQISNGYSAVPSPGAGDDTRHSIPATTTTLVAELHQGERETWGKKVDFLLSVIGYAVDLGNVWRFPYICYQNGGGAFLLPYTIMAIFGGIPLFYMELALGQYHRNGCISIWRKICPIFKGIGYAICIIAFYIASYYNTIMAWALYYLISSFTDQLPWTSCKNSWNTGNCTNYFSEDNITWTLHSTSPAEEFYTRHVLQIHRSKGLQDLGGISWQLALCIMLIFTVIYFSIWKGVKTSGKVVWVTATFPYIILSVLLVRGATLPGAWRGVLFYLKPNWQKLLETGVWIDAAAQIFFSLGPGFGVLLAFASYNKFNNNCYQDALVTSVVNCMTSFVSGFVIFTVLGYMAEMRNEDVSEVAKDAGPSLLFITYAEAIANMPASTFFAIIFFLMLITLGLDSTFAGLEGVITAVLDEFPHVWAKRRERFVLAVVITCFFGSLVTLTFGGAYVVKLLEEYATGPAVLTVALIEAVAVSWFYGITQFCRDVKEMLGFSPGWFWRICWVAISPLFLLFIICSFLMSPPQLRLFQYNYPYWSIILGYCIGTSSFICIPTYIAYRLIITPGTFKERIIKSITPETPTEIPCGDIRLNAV
Description: as §2, §3, §1

[3] = 3 mg·kg−1 i.v. (60 min after 1 mg·kg−1)
[4] = IC50 on uptake mediated by hNET
[5] = IC50 on uptake mediated by hSERT

Row | Compound | effect on dialysate dopamine ([1]; 1 mg·kg−1 i.v.) | effect on dialysate dopamine [1, 3] | blood concentration, first case [2] [µg/kg] | blood concentration, second case [2] [µg/kg] | IC50 (hNET; [4]) [µM] | efficacy of uptake inhibition at hNET (hNET) | IC50 (hSERT; [5]) [µM] | efficacy of uptake inhibition at hSERT (hSERT) | IC50 (hNET; read-out: IC50 on uptake mediated by hNET) [µM] | IC50 (hSERT; read-out: IC50 on uptake mediated by hSERT) [µM]
1 | CNC(C)C(=O)c1ccc(C)cc1.Cl (stereo not drawn) [Mephedrone, 2‐Methylamino‐1‐(p‐tolyl)propan‐1‐one hydrochloride] | increased dopamine | elevated dopamine | 28 | 29 | 2.77 | fully efficacious inhibitors of uptake | 7.83 | fully efficacious inhibitors of uptake |  | 
2 | Cc1ccc(C(=O)C(C)N)cc1.Cl (stereo not drawn) [Nor‐mephedrone, 2‐amino‐1‐(p‐tolyl)propan‐1‐one hydrochloride] |  | elevated dopamine |  |  | 5.46 | fully efficacious inhibitors of uptake | 10.6 | fully efficacious inhibitors of uptake |  | 
3 | CNC(C)C(=O)c1ccc(CO)cc1.Cl (stereo not drawn) [4‐OH‐mephedrone, 1‐(4‐(hydroxymethyl)phenyl)‐2‐(methylamino)propan‐1‐one hydrochloride] | no significant impact | no significant impact | 2 | 9 |  | fully efficacious inhibitors of uptake |  | fully efficacious inhibitors of uptake | 4.85 | 73.5
